For series [1] the following is noted: human, mda-mb-231, 2 h.
The conditions of series [2]: human, mda-mb-231, 24 h.

Regarding `CC(=O)O[C@H]1C(=O)[C@@]2(C)[C@H]([C@H](OC(=O)c3ccccc3)[C@]3(O)C[C@H](OC(=O)[C@H](O)[C@@H](NC(=O)c4ccccc4)c4ccccc4)C(C)=C1C3(C)C)[C@]1(OC(C)=O)CO[C@@H]1C[C@@H]2O` [PACLITAXEL], the Drug uptake entry in series [1] and in series [2] was “Active” in each case.

The values above are taken from ChEMBL document CHEMBL5625193, “Modulation of taxane binding to tubulin curved and straight conformations by systematic 3'N modification provides for improved microtubule binding, persistent cytotoxicity and in vivo potency” (Eur J Med Chem, 2023).
